ChEMBL document CHEMBL1828590 (J Med Chem, 2011)

Legend:
[1] = Half life in human liver microsomes; assay type: ADME, Microsome
[2] = Half life in mouse liver microsomes; assay type: ADME, Microsome; details: liver microsomes
[3] = Half life in rat liver microsomes; assay type: ADME, Microsome
[4] = Half life in dog liver microsomes; assay type: ADME, Canis lupus familiaris, Microsome
[5] = Kinetic solubility of the compound at pH 7 with […] DMSO; assay type: physicochemical; details: buffer, read-out: Kinetic_solubility
[6] = 1-Octanol-sodium phosphate buffer distribution coefficient, log D of the compound at pH 7.4; assay type: physicochemical; details: 1-octanol/sodium phosphate buffer, read-out: logD
[7] = Apparent permeability from apical to basolateral side of human Caco2 cells; assay type: ADME, cell-based; details: Caco-2
[8] = Apparent permeability from basolateral to apical side of human Caco2 cells; assay type: ADME, cell-based; details: Caco-2
Mus musculus [9] = assay: Toxicity in athymic nu/nu Harlan mouse xenografted with human HCT116 cells assessed as mouse survival at 25 mg/kg, po QD for 21 days measured on day 22; assay type: organism-based, HCT-116; design: dose 25 mg/kg, route oral; details: in vivo, 504 h
Mus musculus [10] = assay: Toxicity in athymic nu/nu Harlan mouse xenografted with human HCT116 cells assessed as mouse survival at 50 mg/kg, po QD for 21 days measured on day 22; assay type: organism-based, HCT-116; design: dose 50 mg/kg, route oral; details: in vivo, 504 h
Mus musculus [11] = assay: Toxicity in athymic nu/nu Harlan mouse xenografted with human HCT116 cells assessed as mouse survival at 100 mg/kg, po QD for 21 days measured on day 22; assay type: organism-based, HCT-116; design: dose 100 mg/kg, route oral; details: in vivo, 504 h
HCT-116 [12] = assay: Antitumor activity against human HCT116 cells xenografted in athymic nu/nu Harlan mouse assessed as tumor growth inhibition at 25 mg/kg, po qd for 21 days measured on day 22; assay type: functional; details: read-out: TGI
HCT-116 [13] = assay: Antitumor activity against human HCT116 cells xenografted in athymic nu/nu Harlan mouse assessed as tumor growth inhibition at 50 mg/kg, po qd for 21 days measured on day 22; assay type: functional; details: read-out: TGI
HCT-116 [14] = assay: Antitumor activity against human HCT116 cells xenografted in athymic nu/nu Harlan mouse assessed as tumor growth inhibition at 100 mg/kg, po qd for 21 days measured on day 22; assay type: functional; details: read-out: TGI
Mus musculus [15] = assay: Toxicity in athymic nu/nu Harlan mouse xenografted with human HCT116 cells assessed as body weight loss at 50 mg/kg, po QD for 21 days measured on day 5; assay type: organism-based, HCT-116; design: dose 50 mg/kg, route oral; details: in vivo, 504 h
Mus musculus [16] = assay: Toxicity in athymic nu/nu Harlan mouse xenografted with human HCT116 cells assessed as body weight loss at 100 mg/kg, po QD for 21 days measured on day 22; assay type: organism-based, HCT-116; design: dose 100 mg/kg, route oral; details: in vivo, 504 h
COLO 205 = assay: Antiproliferative activity against human COLO205 cells after 96 hrs by celltiter 96 assay; assay type: functional, cell-based; details: COLO 205, 96 h
[17] = Oral bioavailability in nude BALB/c mouse at 50 mg/kg; assay type: ADME, organism-based; details: in vivo
Mus musculus [18] = assay: Toxicity in athymic nu/nu Harlan mouse xenografted with human HCT116 cells assessed as body weight loss at 200 mg/kg, po QD for 21 days measured on day 19; assay type: organism-based, HCT-116; design: dose 200 mg/kg, route oral; details: in vivo, 504 h
Mus musculus [19] = assay: Toxicity in athymic nu/nu Harlan mouse xenografted with human HCT116 cells assessed as body weight loss at 300 mg/kg, po QD for 21 days measured on day 19; assay type: organism-based, HCT-116; design: dose 300 mg/kg, route oral; details: in vivo, 504 h
Mus musculus [20] = assay: Toxicity in athymic nu/nu Harlan mouse xenografted with human HCT116 cells assessed as body weight loss at 200 mg/kg, po QD for 21 days measured on day 8; assay type: organism-based, HCT-116; design: dose 200 mg/kg, route oral; details: in vivo, 504 h
Mus musculus [21] = assay: Toxicity in nude BALB/c mouse xenografted with human HCT116 cells assessed as body weight loss at 200 mg/kg, po QD for 21 days measured on day 19; assay type: organism-based, HCT-116; design: dose 200 mg/kg, route oral; details: in vivo, 504 h
Mus musculus [22] = assay: Toxicity in athymic nu/nu Harlan mouse xenografted with human HCT116 cells assessed as mouse survival at 200 mg/kg, po QD for 21 days measured on day 22; assay type: organism-based, HCT-116; design: dose 200 mg/kg, route oral; details: in vivo, 504 h
Mus musculus [23] = assay: Toxicity in nude BALB/c mouse xenografted with human HCT116 cells assessed as mouse survival at 200 mg/kg, po QD for 21 days measured on day 22; assay type: organism-based, HCT-116; design: dose 200 mg/kg, route oral; details: in vivo, 504 h
Mus musculus [24] = assay: Toxicity in nude BALB/c mouse xenografted with human A2780 cells assessed as maximum body weight loss at 200 mg/kg, po QD for 21 days measured on day 13; assay type: organism-based; design: dose 200 mg/kg, route oral; details: in vivo, 504 h
HCT-116 [25] = assay: Antitumor activity against human HCT116 cells xenografted in athymic nu/nu Harlan mouse assessed as tumor growth inhibition at 200 mg/kg, po qd for 7 days measured on day 22; assay type: functional; details: read-out: TGI
Mus musculus [26] = assay: Toxicity in athymic nu/nu Harlan mouse xenografted with human HCT116 cells assessed as mouse survival at 50 mg/kg, po QD for 7 days measured on day 22; assay type: organism-based, HCT-116; design: dose 50 mg/kg, route oral; details: in vivo, 168 h
Mus musculus [27] = assay: Toxicity in athymic nu/nu Harlan mouse xenografted with human HCT116 cells assessed as mouse survival at 100 mg/kg, po QD for 7 days measured on day 22; assay type: organism-based, HCT-116; design: dose 100 mg/kg, route oral; details: in vivo, 168 h
Mus musculus [28] = assay: Toxicity in athymic nu/nu Harlan mouse xenografted with human HCT116 cells assessed as body weight loss at 100 mg/kg, po QD for 7 days measured on day 5; assay type: organism-based, HCT-116; design: dose 100 mg/kg, route oral; details: in vivo, 168 h
Mus musculus [29] = assay: Toxicity in athymic nu/nu Harlan mouse xenografted with human HCT116 cells assessed as body weight loss at 50 mg/kg, po QD for 21 days measured on day 5; details: in vivo, 504 h
Mus musculus [30] = assay: Toxicity in athymic nu/nu Harlan mouse xenografted with human HCT116 cells assessed as body weight loss at 200 mg/kg, po QD for 7 days measured on day 5; details: in vivo, 168 h
HCT-116 [31] = assay: Antitumor activity against human HCT116 cells xenografted in athymic nu/nu Harlan mouse assessed as tumor growth inhibition at 100 mg/kg, po qd measured on day 22; details: HCT-116, po, read-out: TGI
HCT-116 [32] = assay: Antitumor activity against human HCT116 cells xenografted in athymic nu/nu Harlan mouse assessed as tumor growth inhibition at 50 mg/kg, po qd for 21 days measured on day 22; details: HCT-116, po, read-out: TGI
HCT-116 [33] = assay: Antitumor activity against human HCT116 cells xenografted in athymic nu/nu Harlan mouse assessed as tumor growth inhibition at 200 mg/kg, po qd for 21 days measured on day 22; assay type: functional; details: read-out: TGI
Mus musculus [34] = assay: Toxicity in athymic nu/nu Harlan mouse xenografted with human HCT116 cells assessed as body weight loss at 100 mg/kg, po QD for 21 days measured on day 8; assay type: organism-based, HCT-116; design: dose 100 mg/kg, route oral; details: in vivo, 504 h

Structure (SMILES)	half-life [1] [min]	half-life [2] [min]	half-life [3] [min]	half-life [4] [min]	solubility kinetic [5] [µM]	Papp A→B [7] [×10⁻⁶ cm/s]	Papp B→A [8] [×10⁻⁶ cm/s]	Activity (Mus musculus [10])	Activity (Mus musculus [11])	inhibition in vivo at 50 mg/kg (HCT-116 [13]) [%]	inhibition in vivo at 100 mg/kg (HCT-116 [14]) [%]	Activity (Mus musculus [18]) [%]	also measured
CN(C)CC(C)(C)Cn1c(CC(C)(C)C)nc2cc(/C=C/C(=O)NO)ccc21.Cl.Cl	> 60	20	41	> 60	> 200	19.4	14.9	Non-toxic	Non-toxic	55	85		logD [6]: 2.41; Activity (Mus musculus [9]): Non-toxic; inhibition in vivo at 25 mg/kg (HCT-116 [12]): 30%; Activity (Mus musculus [15]): 5.6%; Activity (Mus musculus [16]): 13.1%
O=C(CCCCCCC(=O)Nc1ccccc1)NO [VORINOSTAT]	> 60	> 60	> 60	> 60	> 200							4.6	IC50 (COLO 205): 2120 nM; bioavailability [17]: 8.3%; Activity (Mus musculus [19]): 5.5%; Activity (Mus musculus [20]): 8.9%; Activity (Mus musculus [21]): 1.9%; Activity (Mus musculus [22]): Non-toxic; Activity (Mus musculus [23]): Non-toxic; Activity (Mus musculus [24]): 9.3%
CCCCCCc1nc2cc(/C=C/C(=O)NO)ccc2n1CCN(C)C.Cl.Cl	> 60	16	10	10	> 200	9.59	26						inhibition in vivo at 200 mg/kg (HCT-116 [25]): 53%; Activity (Mus musculus [26]): Non-toxic; Activity (Mus musculus [27]): Non-toxic; Activity (Mus musculus [28]): 4.9%; Activity (Mus musculus [29]): 1.9%; Activity (Mus musculus [30]): 18%; inhibition in vivo at 100 mg/kg (HCT-116 [31]): 50%; inhibition in vivo at 50 mg/kg (HCT-116 [32]): 17%
CCCCc1nc2cc(/C=C/C(=O)NO)ccc2n1CCNC(C)C.Cl.Cl	> 60	36	3.3	> 60	> 200			Non-toxic	Non-toxic	19	60	7.9	inhibition in vivo at 200 mg/kg (HCT-116 [33]): 90%; Activity (Mus musculus [34]): 5%
